Patent US12350253B2, “Use of cannabinoids in the treatment of dyskinesia associated with parkinson's disease” (Jazz Pharmaceuticals Research UK Limited, priority 2019, dated 2025)
“Also recorded” adds a separate entry of the source.

What was measured:
[1] = system: 6-hydroxydopamine rat model of Parkinson's disease; settings: oral coadministration of L-DOPA and rimonabant; cited from earlier work
[2] = system: nigral neurons; settings: various experimental models of PD; cited from earlier work
[3] = system: phospho(Ser10)-acetyl (Lys14)-Hystone 3 (pAcH3); assay: pAcH3 immunostaining in striatum; assay type: in vivo, mice; settings: chronic THCV with L-DOPA vs chronic L-DOPA
Procedure: (§1) Following behavioral analysis, animals were euthanized 1 hour after the last injection of L-DOPA. The brains were post-fixed for 24 h and were then transferred to a solution of 0.1 M phosphate buffer containing 0.02% sodium azide for storage at 4° C. To obtain regular blocks, brains were further immersed in 3% agarose and cut in coronal sections (30 μm thick) using a vibratome.
(§2) Immunostaining was carried out in free-floating sections using a standard avidin-biotin immunocytochemical protocol with the following rabbit antisera: (i) FosB (1:7500), and (ii) anti phospho(Ser10)-acetyl (Lys14)-Hystone 3 (pAcH3; 1:500).
(§3) After incubation with primary antibody (overnight), the sections were washed and incubated with biotinylated secondary anti-rabbit antibody (1:500) for 1 h at room temperature. After washing, the sections were incubated with streptavidin for 1 h and antibody staining was developed using DAB.
(§4) Regarding the quantification of FosB and pAcH3 immunoreactivity, it was carried out using an image analysis system.
For all sides, immunostaining intensity and number of immunolabeled nuclei were determined using five serial rostrocaudal sections per animal and three counting frames (dorsal, dorsolateral and lateral) per section (0.091 mm2 each frame). Images were digitized with Leica microscope under 40× lens. Before counting, images were thresholded at a standardized grey-scale level. […]

[4] = system: Pitx3−/− mice; assay: Rotarod test (motor coordination); assay type: in vivo; settings: THCV co-administered with L-DOPA; after 12 days of daily treatment; vs L-DOPA
Procedure: (§5) In a first experiment, animals were treated with an i.p. injection of 10 mg/kg of benserazide hydrochloride followed 20 minutes later by a second i.p. injection of 10 mg/kg of L-DOPA methyl ester. Separate groups of animals received equivalent injections with vehicle (saline) used as controls. Both L-DOPA- and vehicle-treated mice received, 10 minutes after the second injection, a third i.p. injection of THCV (2 mg/kg) or vehicle (Tween 80-saline). The same treatment schedule was repeated daily during approximately two weeks.
Motor coordination was tested using a rotarod. The rotarod was set at a constant speed (10 revolutions per minute) and latency to fall from the rod was assessed. Cut off time was 180 seconds. Before testing, mice were previously habituated in one training session, as described previously.

[5] = system: L-DOPA-induced dyskinesia in Pitx3−/− mice; assay: L-DOPA-induced dyskinesia (AIMs), THCV co-administered daily with L-DOPA; assay type: in vivo; settings: for duration of AIMs (three/four-paw dyskinetic movements): vs L-DOPA alone
Procedure: Pitx3^−/− aphakia mice and their wildtype littermates, were genotyped using PCR amplification analysis of tail-tip DNA extracts. Mice were housed under a 12 h dark/light cycle with free access to food and water. They were used for experimental purposes at the age of 4-6 month-old (24-30 g of weight).
as §5
(§6) AIMs were assessed 30 and 60 min after L-DOPA administration. Dyskinesia was scored off-line by a blind rater based on video footage. Ratings were assessed for four minutes at each time point.
(§7) Total dyskinesia was rated by adding the duration in seconds of all three-paw and four-paw dyskinetic bouts. Additionally, on odd days, individual mice were placed in actimeters and motor activity was assessed following drug administration.
On Day 14, we evaluated AIMs every 20 min for 160 min after administering L-DOPA to determine the extinction of this response.

[6] = system: parkinsonian rats; settings: acute treatment; cited from earlier work
[7] = system: Pitx3−/− mice; assay: Locomotor activity (multicage activity meter); assay type: in vivo
Procedure: as §5
Horizontal and vertical activities were recorded, using a multicage activity meter system consisting of a set of 8 individual cages measuring 20×20×28 cm. Animals were introduced in the actimeter 60 minutes after L-DOPA injection and were assessed for 30 minutes. Horizontal movement was detected by 2 arrays of 16 infrared beams, whereas a third array positioned 4 cm above the floor detected vertical movement.
The software is capable of differentiating between repetitive interruptions of the same photobeam and interruptions of adjacent photobeams. The latter measure was used as an index of ambulatory activity.

[8] = system: established L-DOPA-induced dyskinesia in Pitx3−/− mice; assay: Established L-DOPA-induced dyskinesia (AIMs), THCV started after about two weeks of L-DOPA; assay type: in vivo; settings: 30 min after L-DOPA; for duration of L-DOPA-induced three/four-paw dyskinesia, established dyskinesia: THCV 2 mg/kg from day 14 after 13 days of L-DOPA, vs L-DOPA alone
Procedure: In a second experiment, benserazide and L-DOPA (and their corresponding vehicles) were administered to mice following the same schedule than in the previous experiment, but THCV, again at the dose of 2 mg/kg, was given for the first time after approximately two weeks of daily benserazide/L-DOPA treatment, with the administration of the three compounds (and vehicles) extending for at least 3 days.
as §6, §7

[9] = system: FosB; assay: FosB immunostaining in striatum; assay type: in vivo, mice; settings: chronic THCV with L-DOPA vs chronic L-DOPA
Procedure: as §1, §2, §3
For immunostaining quantification in the completely denervated area, we used the Neurolucida software. […]
as §4
For all sides, immunostaining intensity and number of immunolabeled nuclei were determined using five serial rostrocaudal sections per animal and three counting frames (dorsal, dorsolateral and lateral) per section (0.091 mm2 each frame). […]

[10] = THCV co-administered with L-DOPA, 60 min after L-DOPA, vs L-DOPA

For `Cc1c(C(=O)NN2CCCCC2)nn(-c2ccc(Cl)cc2Cl)c1-c1ccc(Cl)cc1` [rimonabant], the “abnormal involuntary movements and dystonia” value [1] is given as “decreased abnormal involuntary movements and dystonia”.
In the case of `C=C(C)[C@@H]1CCC(C)=C[C@H]1c1c(O)cc(CCCCC)cc1O` [CBD, cannabidiol], the “protection of nigral neurons from death caused by different insults” value (from here on “protection … by different insults”) [2] is listed as “able to protect nigral neurons from death”.
For `CCCCCc1cc(O)c2c(c1)OC(C)(C)[C@@H]1CCC(C)=C[C@@H]21` [THC, tetrahydrocannabinol], the “protection … by different insults” value [2] is listed as “able to protect nigral neurons from death”.
In the case of `CCCCC/C=C\C/C=C\C/C=C\C/C=C\CCCC(=O)Nc1ccc(O)cc1` [AM404], the “protection … by different insults” value [2] is given as “able to protect nigral neurons from death”.
For `CCCCCCC(C)(C)c1ccc([C@@H]2C[C@H](O)CC[C@H]2CCCO)c(O)c1` [CP55,940], the “protection … by different insults” value [2] is given as “able to protect nigral neurons from death”.
For `CCCc1cc(O)c2c(c1)OC(C)(C)[C@@H]1CCC(C)=C[C@@H]21` [THCV, tetrahydrocannabivarin], the “immunostaining intensity of pAcH3-positive nuclei in striatum” value [3] was “decreases the intensity of nuclei; also recorded: beneficial effects”, the “number of pAcH3-positive nuclei in striatum” value [3] was “only evident in the intensity of immunostained-nuclei” and the “rotarod performance (latency to fall)” value [4] was “improved motor coordination in rotarod; also recorded: improved the deteriorated rotarod performance”. The “duration of AIMs (three/four-paw dyskinetic movements)” value ([5]; 30 min post-L-DOPA, THCV 2 mg/kg i.p. daily with L-DOPA 10 mg/kg i.p., except days 1 and 3) was “attenuates dyskinesia; also recorded: reduced the duration of AIMs”, the “duration of AIMs (three/four-paw dyskinetic movements)” value ([5]; 60 min post-L-DOPA, THCV 2 mg/kg i.p. daily with L-DOPA) was “to a lesser extent; also recorded: significant differences only at days 7 and 13 of treatment” and the “dyskinetic movements with THCV alone” value ([5]; THCV 2 mg/kg i.p. alone, no L-DOPA) was “showed no dyskinetic movements”. For the same compound, the “dyskinesias score, acute co-treatment” value ([5]; day 1 of treatment, 30 min and 60 min, THCV 2 mg/kg with L-DOPA) was “decreases, but not significantly”, the “time post-treatment up to which difference from L-DOPA alone remained (kinetic profile of AIMs)” value ([5]; last day of treatment, AIMs every 20 min over 160 min) was “up to 80 minutes” and the motor inhibition [6] was “efficacious in reducing motor inhibition”. The “potency in reducing motor inhibition relative to rimonabant” value [6] was “equivalent to rimonabant”, the horizontal activity ([7]; THCV alone vs vehicle) was “no effect on the horizontal activity” and the vertical activity ([7]; THCV alone vs vehicle) was “did elevate vertical activity by itself”. For the same compound, the horizontal activity [7, 10] was “attenuating the elevated horizontal and vertical activities”, the vertical activity [7, 10] was “attenuating the elevated horizontal and vertical activities” and the “persistence of the reduction of established dyskinesia” value ([8]; THCV 2 mg/kg) was 3 days. The “duration of L-DOPA-induced three/four-paw dyskinesia, established dyskinesia” value [8] was “significantly reduced dyskinesia”, the “duration of L-DOPA-induced three/four-paw dyskinesia, established dyskinesia” value ([8]; listed as Δ9-THCV) was “active in reducing the duration of L-DOPA-induced three/four-paw dyskinesia” and the “immunostaining intensity of FosB-positive cells in striatum” value [9] was “attenuates the immunostaining-intensity of FosB positive nuclei; also recorded: reduction affected both the number and the immunostaining intensity”. For the same compound, the “number of FosB-positive cells in striatum” value [9] was “attenuates the increased expression of FosB-positive cells; also recorded: reduction affected both the number and the immunostaining intensity”.
